# Source: patent US9499550B2 (BRISTOL-MYERS SQUIBB COMPANY, priority 2012, dated 2016)
# Read-outs that look alike come from different tables or passages of the source.
# Tests used:
# [1] = system: HCV genotype 1a (H77 strain) replicon in HUH-7 cells; test: HCV replicon luciferase reporter assay, genotype 1a; format: cell-based; conditions: Hepatitis C virus, Huh-7, 72 h, 3 days incubation, read-out: LE_1a (EC50, range)
# In short: (§1)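 Replicon inhibition for both genotypes was measured as Renilla luciferase signal (EnduRen, 7.5 μM final, 2 h) after 3-day, 37° C exposure of replicon-bearing HUH-7 cells in 4% FCS DMEM, 0.5% DMSO. The 1b construct carries S1179I; the 1a H77 construct carries P1496L and S2204I. Twenty-point, 3-fold dilutions were fitted four-parametrically for EC50, and CC50 was taken from multiplexed Cell Titer-Blue.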
# [2] = system: HCV genotype 1b (Con1) replicon in HUH-7 cells; test: HCV replicon luciferase reporter assay, genotype 1b; format: cell-based; conditions: Hepatitis C virus, Huh-7, 72 h, 3 days incubation, read-out: LE_1b (EC50, range)
# In short: as §1
# [3] = HCV genotype 1a replicon luciferase
# [4] = HCV genotype 1b replicon luciferase
# [5] = GETYPE1A, HCV genotype 1a replicon luciferase
# [6] = GETYPE1B, HCV genotype 1b replicon luciferase
# [7] = HCV genotype 1a replicon luciferase assay, range class
# [8] = HCV genotype 1b replicon luciferase assay, range class
Compound,"EC50 [1, 3] [nM]","EC50 [2, 4] [nM]",other results
"CC[C@@H]1C[C@H](C)CC/C=C\[C@@H]2C[C@@]2(C(=O)NS(=O)(=O)C2CC2)NC(=O)[C@@H]2C[C@@H](Oc3nccc4c5c(ccc34)N(C)CCO5)CN2C(=O)[C@H]1NC(=O)OC(C)(C)C [Compound 5308, tert-butyl ((2R,6S,7R,9R,13aS,14aR,16aS,Z)-14a-((cyclopropylsulfonyl)carbamoyl)-7-ethyl-9-methyl-2-((4-methyl-3,4-dihydro-2H-[1,4]oxazino[2,3-f]isoquinolin-7-yl)oxy)-5,16-dioxo-1,2,3,5,6,7,8,9,10,11,13a,14,14a,15,16,16a-hexadecahydrocyclopropa[e]pyrrolo[1,2-a][1,4]diazacyclopentadecin-6-yl)carbamate]",< 5.46,< 5.46,–
CC[C@@H]1C[C@H](C)CC/C=C\[C@@H]2C[C@@]2(C(=O)NS(=O)(=O)C2(C)CC2)NC(=O)[C@@H]2C[C@@H](Oc3nc4cc(OC)c(F)cc4nc3C(F)(F)F)CN2C(=O)[C@H]1NC(=O)OC(C)(C)C(F)(F)F [Compound 4268],–,–,"EC50 [1, 5]: 1.01 to 5 nM; EC50 [2, 6]: 1.01 to 5 nM"
"CC[C@@H]1C[C@H](C)CC/C=C\[C@@H]2C[C@@]2(C(=O)NS(=O)(=O)C2(CF)CC2)NC(=O)[C@@H]2C[C@@H](Oc3nc4c(c5ccccc35)CCCO4)CN2C(=O)[C@H]1NC(=O)OC(C)(C)C(C)(F)F [Compound 6070, 3,3-difluoro-2-methylbutan-2-yl((2R,6S,7R,9R,13aS,14aR,16aS,Z)-2-((2,3-dihydro-1H-pyrano[2,3-c]isoquinolin-6-yl)oxy)-7-ethyl-14a-(((1-(fluoromethyl)cyclopropyl)sulfonyl)carbamoyl)-9-methyl-5,16-dioxo-1,2,3,5,6,7,8,9,10,11,13a,14,14a,15,16,16a-hexadecahydrocyclopropa[e]pyrrolo[1,2-a][1,4]diazacyclopentadecin-6-yl)carbamate]",1.01 to 5,0.51 to 1,–
"[2H]C([2H])([2H])C(OC(=O)N[C@@H]1C(=O)N2C[C@H](Oc3nccc4c5c(ccc34)N(C)CCO5)C[C@H]2C(=O)N[C@]2(C(=O)NS(=O)(=O)C3CC3)C[C@H]2/C=C\CC[C@H](C)C[C@H]1C)(C([2H])([2H])[2H])C(F)(F)F [Compound 5279, 1,1,1,3,3,3-hexadeutero-2-(trifluoromethyl)propan-2-yl((2R,6S,7R,9S,13aS,14aR,16aS,Z)-14a-((cyclopropylsulfonyl)carbamoyl)-7,9-dimethyl-2-((4-methyl-3,4-dihydro-2H-[1,4]oxazino[2,3-f]isoquinolin-7-yl)oxy)-5,16-dioxo-1,2,3,5,6,7,8,9,10,11,13a,14,14a,15,16,16a-hexadecahydrocyclopropa[e]pyrrolo[1,2-a][1,4]diazacyclopentadecin-6-yl)carbamate]",4.82 to 103,4.82 to 103,–
C[C@@H]1CC/C=C\[C@@H]2C[C@@]2(C(=O)NS(=O)(=O)C2CC2)NC(=O)[C@@H]2C[C@@H](Oc3nccc4ccccc34)CN2C(=O)[C@@H](NC(=O)OC(C)(C)C(F)(F)F)[C@H](C)C1 [Compound 4040],–,–,"EC50 [1, 5]: < 5.46 nM; EC50 [2, 6]: < 5.46 nM"
"COc1ccc2c(O[C@@H]3C[C@H]4C(=O)N[C@]5(C(=O)NS(=O)(=O)C6(C)CC6)C[C@H]5/C=C\CC[C@@H](C)C[C@@H](C)[C@H](NC(=O)OC(C)(C)C)C(=O)N4C3)nc(-c3ccc(C(C)(C)C)cc3)cc2c1 [Compound 4078, tert-butyl (2R,6S,7R,9R,13aS,14aR,16aS,Z)-2-(3-(4-tert-butylphenyl)-6-methoxyisoquinolin-1-yloxy)-7,9-dimethyl-14a-(1-methylcyclopropylsulfonylcarbamoyl)-5,16-dioxo-1,2,3,5,6,7,8,9,10,11,13a,14,14a,15,16,16a-hexadecahydrocyclopropa[e]pyrrolo[1,2-a][1,4]diazacyclopentadecin-6-ylcarbamate]",4.82 to 103,4.82 to 103,–
"CC[C@@H]1C[C@H](C)CC/C=C\[C@@H]2C[C@@]2(C(=O)NS(=O)(=O)C2(C)CC2)NC(=O)[C@@H]2C[C@@H](Oc3nccc4cc(OC)c(Cl)cc34)CN2C(=O)[C@H]1NC(=O)OC(C)(C)C(F)F [Compound 3226, 1,1-difluoro-2-methylpropan-2-yl((2R,6S,7R,9R,13aS,14aR,16aS,Z)-2-((7-chloro-6-methoxyisoquinolin-1-yl)oxy)-7-ethyl-9-methyl-14a-(((1-methylcyclopropyl)sulfonyl)carbamoyl)-5,16-dioxo-1,2,3,5,6,7,8,9,10,11,13a,14,14a,15,16,16a-hexadecahydrocyclopropa[e]pyrrolo[1,2-a][1,4]diazacyclopentadecin-6-yl)carbamate]",1.01 to 5,0.51 to 1,–
"CC1CC/C=C\[C@@H]2C[C@@]2(C(=O)NS(=O)(=O)C2(CF)CC2)NC(=O)[C@@H]2C[C@@H](Oc3nccc4c5c(ccc34)OCCO5)CN2C(=O)[C@@H](NC(=O)OC(C)(C)C)[C@H](C)C1 (stereo in doubt) [Compound 5321, tert-butyl ((2R,6S,7R,9R,13aS,14aR,16aS,Z)-2-((2,3-dihydro-[1,4]dioxino[2,3-f]isoquinolin-7-yl)oxy)-14a-(((1-(fluoromethyl)cyclopropyl)sulfonyl)carbamoyl)-7,9-dimethyl-5,16-dioxo-1,2,3,5,6,7,8,9,10,11,13a,14,14a,15,16,16a-hexadecahydrocyclopropa[e]pyrrolo[1,2-a][1,4]diazacyclopentadecin-6-yl)carbamate]",< 5.46,< 5.46,–
"CCn1nc(O[C@@H]2C[C@H]3C(=O)N[C@]4(C(=O)NS(=O)(=O)C5(C)CC5)C[C@H]4/C=C\CC[C@@H](C)C[C@@H](C)[C@H](NC(=O)OC(C)(C)C(F)(F)F)C(=O)N3C2)c2ccccc2c1=O [Compound 5053, 1,1,1-trifluoro-2-methylpropan-2-yl((2R,6S,7R,9R,13aS,14aR,16aS,Z)-2-((3-ethyl-4-oxo-3,4-dihydrophthalazin-1-yl)oxy)-7,9-dimethyl-14a-(((1-methylcyclopropyl)sulfonyl)carbamoyl)-5,16-dioxo-1,2,3,5,6,7,8,9,10,11,13a,14,14a,15,16,16a-hexadecahydrocyclopropa[e]pyrrolo[1,2-a][1,4]diazacyclopentadecin-6-yl)carbamate]",4.82 to 103,< 5.46,–
"COc1ccc2c(O[C@@H]3C[C@H]4C(=O)N[C@]5(C(=O)NS(=O)(=O)C6(CF)CC6)C[C@H]5/C=C\CC[C@H](C)C[C@@H](C)[C@H](NC(=O)OC(C)(C)C(C)(F)F)C(=O)N4C3)nc(N(C)C)cc2c1 [Compound 3124, 3,3-difluoro-2-methylbutan-2-yl((2R,6S,7R,9S,13aS,14aR,16aS,Z)-2-((3-(dimethylamino)-6-methoxyisoquinolin-1-yl)oxy)-14a-(((1-(fluoromethyl)cyclopropyl)sulfonyl)carbamoyl)-7,9-dimethyl-5,16-dioxo-1,2,3,5,6,7,8,9,10,11,13a,14,14a,15,16,16a-hexadecahydrocyclopropa[e]pyrrolo[1,2-a][1,4]diazacyclopentadecin-6-yl)carbamate]",–,–,"EC50 [1, 7]: 4.82 to 103 nM; EC50 [2, 8]: 4.82 to 103 nM"
"CC[C@@H]1C[C@H](C)CC/C=C\[C@@H]2C[C@@]2(C(=O)NS(=O)(=O)C2(C)CC2)NC(=O)[C@@H]2C[C@@H](Oc3ncc(F)c4cc(OC)ccc34)CN2C(=O)[C@H]1NC(=O)OC(C)(C)C [Compound 4383, tert-butyl ((2R,6S,7R,9R,13aS,14aR,16aS,Z)-7-ethyl-2-((4-fluoro-6-methoxyisoquinolin-1-yl)oxy)-9-methyl-14a-(((1-methylcyclopropyl)sulfonyl)carbamoyl)-5,16-dioxo-1,2,3,5,6,7,8,9,10,11,13a,14,14a,15,16,16a-hexadecahydrocyclopropa[e]pyrrolo[1,2-a][1,4]diazacyclopentadecin-6-yl)carbamate]",1.01 to 5,0.51 to 1,–
"CC[C@@H]1C[C@H](C)CC/C=C\[C@@H]2C[C@@]2(C(=O)NS(=O)(=O)C2(C)CC2)NC(=O)[C@@H]2C[C@@H](Oc3ncc(OC)c4ccc(F)cc34)CN2C(=O)[C@H]1NC(=O)O[C@H](C)C(F)(F)F [Compound 4357, (R)-1,1,1-trifluoropropan-2-yl ((2R,6S,7R,9R,13aS,14aR,16aS,Z)-7-ethyl-2-((7-fluoro-4-methoxyisoquinolin-1-yl)oxy)-9-methyl-14a-(((1-methylcyclopropyl)sulfonyl)carbamoyl)-5,16-dioxo-1,2,3,5,6,7,8,9,10,11,13a,14,14a,15,16,16a-hexadecahydrocyclopropa[e]pyrrolo[1,2-a][1,4]diazacyclopentadecin-6-yl)carbamate]",1.01 to 5,0.51 to 1,–
"COCCOc1cnc(O[C@@H]2C[C@H]3C(=O)N[C@]4(C(=O)NS(=O)(=O)C5CC5)C[C@H]4/C=C\CC[C@@H](C)C[C@@H](C)[C@H](NC(=O)OC(C)(C)C(C)(F)F)C(=O)N3C2)c2ccc(OC)cc12 [Compound 1151, 3,3-difluoro-2-methylbutan-2-yl((2R,6S,7R,9R,13aS,14aR,16aS,Z)-14a-((cyclopropylsulfonyl)carbamoyl)-2-((6-methoxy-4-(2-methoxyethoxyl)isoquinolin-1-yl)oxy)-7,9-dimethyl-5,16-dioxo-1,2,3,5,6,7,8,9,10,11,13a,14,14a,15,16,16a-hexadecahydrocyclopropa[e]pyrrolo[1,2-a][1,4]diazacyclopentadecin-6-yl)carbamate]",–,–,"EC50 [1, 7]: < 5.46 nM; EC50 [2, 8]: < 5.46 nM"
